Earlier results as cited in patent publication US20250366801A1, “ESTIMATION OF CEREBROVASCULAR RESERVE” (MedTrace Pharma A/S, priority 2024, published 2025).

Conditions: single standard dose of 1000 mg intravenously; patients with atherosclerotic cerebrovascular disease (Vagal 2009)

## CC(=O)Nc1nnc(S(N)(=O)=O)s1 [Acetazolamide, acetazolamide]
  time of peak cerebral blood flow augmentation after the intravenous bolus injection: 10 to 15 min
